The record followed here is patent US10857197B2, “Treatment of HMGB1-mediated inflammation” (The Feinstein Institue for Medical Research, priority 2014, dated 2020).

The test system of experiment [1] is HMGB1-induced TNF release, primary human macrophages. Put plainly: HMGB1-induced TNF release in primary human macrophages (ELISA). It is filed as cell-based. The settings on record: HMGB1 1 μg/ml, 16 h. A general note: ELISA stands for enzyme-linked immunosorbent assay.
Experiment [2] relates to thioglycollate-elicited peritoneal mouse macrophages. Put plainly: HMGB1-induced cytokine release, mouse peritoneal macrophages (cytokine Ab array). The settings on record: HMGB1 1 μg/ml, peptide 50 μg/ml, 16 h. It is filed as cell-based. On the procedure:
(§1) Cell isolation and culture. […] […]. TNF released was measured by ELISA.
(§2) Cytokine and NF-κB measurements. […] Twenty two cytokines or chemokines were determined simultaneously.

Experiment [3] concerns LPS-stimulated primary human macrophages. Put plainly: LPS-stimulated cytokine/chemokine release, primary human macrophages (cytokine Ab array). It is filed as cell-based. The settings on record: LPS 2 ng/ml, peptide 50 μg/ml, 16 h. The procedure: as §2
For experiment [4], the system named is LPS-induced systemic cytokine levels. Kind of experiment: LPS injection in mice, serum TNF and IL-6. It is filed as in vivo. The settings on record: LPS 8 mg/kg i.p., peptide 500 μg/mouse i.p., 90 minutes. The procedure: as §2
Experiment [5] can be described thus: Acetaminophen (APAP) hepatic toxicity model. It is filed as in vivo, mouse. The procedure:
For the acetaminophen (APAP) hepatic toxicity model, three sets of experiments were conducted. In all experiments, mice were routinely fasted overnight and received intraperitoneal (IP) injection of APAP (350 mg/kg for survival studies and 400 mg/kg for serum measurements when mice were euthanized at 24 h post-APAP) as previous described. […] Mice had APAP injection and were euthanized 24 hours later (for serum measurements) or monitored for 2 weeks (for survival studies). […] In survival experiments, mice had APAP injection and received anti-HMGB1 antibodies (5 μg/mouse, IP, once daily for 4 days followed by two additional doses once every other day beginning at 2 hours post-APAP). Irrelevant non-immune IgG was used as controls. For serum measurements, mice subjected to APAP injection and received injection of monoclonal anti-HMGB1 antibody (5 μg/mouse, injected IP at 2 and 7 hours post-APAP) and euthanized at 24 hours post-APAP. The third set of experiments was used to assess the efficacy of P5779 in APAP model in wild type mice. […] Hepatotoxicity was determined by serum levels of glutamate dehydrogenase (GLDH), alanine aminotransferease (ALT) and aspartate aminotransferase (AST) as described previously. Antoine et al., Hepatology 58:777-787 (2013).
Histological evaluation. […] sections were stained with hematoxylin and eosin.

A short description of experiment [6]: Cecal ligation and puncture (CLP) sepsis model. It is filed as in vivo. The settings on record: 50 or 500 μg/mouse i.p. once a day for 4 days from 24 h after CLP. The source says:
Survival was monitored for 2 weeks.

The test system of experiment [7] is Poly I:C, S100A12, LPS, PGN and CpG DNA-mediated TNF release, primary human macrophages. The settings on record: 16 h.
The conditions of experiment [8]: 500 μg/mouse i.p. at surgery, 6 h.
The target of experiment [9] is human TLR4 (Homo sapiens, UniProt O00206). Kind of experiment: SPR binding to TLR4 coated on the chip. A general note: SPR reads the build-up and loss of mass on a sensor chip optically.
Experiment [10] has as its target T1, HMGB1 (Rattus norvegicus, UniProt P63159).
T1 sequence (P63159 1-215): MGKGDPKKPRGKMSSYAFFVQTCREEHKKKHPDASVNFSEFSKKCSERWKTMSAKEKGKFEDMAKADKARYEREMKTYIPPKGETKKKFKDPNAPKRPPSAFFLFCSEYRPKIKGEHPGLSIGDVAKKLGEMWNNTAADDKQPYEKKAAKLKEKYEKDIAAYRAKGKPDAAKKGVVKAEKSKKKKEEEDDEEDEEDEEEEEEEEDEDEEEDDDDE
Put plainly: SPR binding of peptide to HMGB1 coated on the chip. The settings on record: absence of MD2.

In experiment [11] the target is T2, human MD2 (Homo sapiens, UniProt Q9Y6Y9).
T2 sequence (Q9Y6Y9 19-160): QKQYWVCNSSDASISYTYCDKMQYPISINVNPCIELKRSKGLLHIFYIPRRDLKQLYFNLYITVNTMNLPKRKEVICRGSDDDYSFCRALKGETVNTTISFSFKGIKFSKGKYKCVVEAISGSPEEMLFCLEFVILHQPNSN
Kind of experiment: Surface plasmon resonance (BIAcore) binding to human MD2. The settings on record: SPR.

For experiment [12], the system named is RAW 264.7 cells. Kind of experiment: TNF release from RAW 264.7 cells stimulated with HMGB1 isoforms. It is filed as cell-based, murine. The settings on record: 1 μg/ml, 16 h. The procedure:
as §1, §2

Chain of human TLR4 (O00206 24-839): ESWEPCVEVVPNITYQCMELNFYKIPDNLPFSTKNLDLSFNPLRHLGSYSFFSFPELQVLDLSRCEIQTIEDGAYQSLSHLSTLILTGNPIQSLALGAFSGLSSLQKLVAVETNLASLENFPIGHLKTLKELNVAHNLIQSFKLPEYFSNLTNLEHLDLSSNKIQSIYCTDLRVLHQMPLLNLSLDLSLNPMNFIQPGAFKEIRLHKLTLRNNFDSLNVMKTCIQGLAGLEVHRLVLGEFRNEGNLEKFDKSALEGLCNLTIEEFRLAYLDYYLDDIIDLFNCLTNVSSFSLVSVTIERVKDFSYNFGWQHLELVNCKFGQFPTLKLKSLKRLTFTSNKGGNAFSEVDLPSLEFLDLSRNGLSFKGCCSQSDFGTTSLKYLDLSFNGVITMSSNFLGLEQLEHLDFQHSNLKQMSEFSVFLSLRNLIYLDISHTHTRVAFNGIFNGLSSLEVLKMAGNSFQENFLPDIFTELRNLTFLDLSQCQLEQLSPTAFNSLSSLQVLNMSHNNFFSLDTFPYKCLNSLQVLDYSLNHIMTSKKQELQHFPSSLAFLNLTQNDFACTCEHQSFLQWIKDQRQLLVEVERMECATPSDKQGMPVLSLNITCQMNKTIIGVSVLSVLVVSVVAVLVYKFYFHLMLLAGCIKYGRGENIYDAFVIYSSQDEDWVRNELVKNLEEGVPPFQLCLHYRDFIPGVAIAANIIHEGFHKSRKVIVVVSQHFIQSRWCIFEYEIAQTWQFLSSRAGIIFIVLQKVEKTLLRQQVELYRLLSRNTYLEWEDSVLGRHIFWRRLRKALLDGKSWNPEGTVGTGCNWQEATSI

As to `N[C@@H](Cc1ccccc1)C(=O)N[C@@H](CO)C(=O)N[C@@H](CO)C(=O)N[C@@H](CCC(=O)O)C(=O)O` [P5779, FSSE], the “inhibition of HMGB1-induced TNF release (qualitative)” value in [1] was “significantly inhibited”. In addition, the “HMGB1-induced release of IL-6, IL-12p40/p70, RANTES and MCP-1” value in [2] is recorded as “significantly reduced”. For the same molecule, the “LPS-stimulated cytokine/chemokine release in vitro” value in experiment [3] is recorded as “did not inhibit”. Besides, the “LPS-induced systemic cytokine levels (serum TNF, IL-6)” value in [4] is “failed to attenuate”. Moreover, in experiment [5] (500 μg/mouse i.p. once a day for 5 days, 2 weeks), the “survival after APAP” value is “improved survival”. Also, the “APAP-induced elevation of hepatic serum enzymes (AST, ALT), TNF, liver necrosis” value in [5] (50 or 500 μg/mouse i.p. at 2 and 7 h post-APAP, 24 h) is “dose-dependently reduced”. In addition, the “survival after CLP vs scrambled peptide” value in experiment [6] was “significantly and dose-dependently improved survival rates”. Also, in experiment [7], the “inhibition of TNF release mediated by Poly I:C, S100A12, LPS, PGN and CpG DNA” value is listed as “failed to inhibit”. Besides, in experiment [8], the “hepatic serum enzyme release (AST, ALT) and neutrophil infiltration” value is given as “significantly blunted”. In experiment [9] (SPR, absence of MD2), the “binding to TLR4” value is given as “failed to bind”. In addition, in experiment [10], the “binding to HMGB1” value is listed as “failed to bind”.

For “SFSE (MD2 binding protein) [control peptide, reference compound]”, the “inhibition of HMGB1-induced TNF release (qualitative)” value in experiment [1] is listed as “abolished the capacity to inhibit HMGB1-induced TNF release”. In addition, the “MD2-binding capacity (qualitative)” value in experiment [11] (peptides 100 nM) is listed as “abolished the MD2-binding capacity”.

As for “disulfide HMGB1: recombinant HMGB1 with Cys23-Cys45 disulfide bond and reduced Cys106”, the “TNF release induced by HMGB1 isoform” value in experiment [12] is recorded as “induced TNF secretion”. Further, the “HMGB1 binding to TLR4 in the absence of MD2” value in [9] (disulfide HMGB1 100 nM) was “incapable of directly binding to TLR4”. In experiment [11] (read-out: apparent Kd of HMGB1 binding to MD2, MD2 or HMGB1 immobilized on the chip), the Kd came to 12 nM.

B1: H2S-modified HMGB1: HMGB1 with cysteine modified by H2S (NaSH) (protein, UniProt P09429 1-215, looked up)
High mobility group protein B1: MGKGDPKKPRGKMSSYAFFVQTCREEHKKKHPDASVNFSEFSKKCSERWKTMSAKEKGKFEDMAKADKARYEREMKTYIPPKGETKKKFKDPNAPKRPPSAFFLFCSEYRPKIKGEHPGLSIGDVAKKLGEMWNNTAADDKQPYEKKAAKLKEKYEKDIAAYRAKGKPDAAKKGVVKAEKSKKKKEEEEDEEDEEDEEEEEDEEDEDEEEDDDDE
modifications: cysteine modified by H2S
Regarding B1, in experiment [12], the “TNF release induced by HMGB1 isoform” value is reported as “failed to induce TNF release”.

B2: fully reduced HMGB1: HMGB1 with all cysteine residues reduced (protein)
chain: MGKGDPKKPRGKMSSYAFFVQTCREEHKKKHPDASVNFSEFSKKCSERWKTMSAKEKGKFEDMAKADKARYEREMKTYIPPKGETKKKFKDPNAPKRPPSAFFLFCSEYRPKIKGEHPGLSIGDVAKKLGEMWNNTAADDKQPYEKKAAKLKEKYEKDIAAYRAKGKPDAAKKGVVKAEKSKKKKEEEDDEEDEEDEEEEEEEEDEDEEEDDDDE
In the case of B2, the “TNF release induced by HMGB1 isoform” value in [12] is listed as “failed to induce TNF release”.

B3: sulfonyl HMGB1: HMGB1 with all cysteines terminally oxidized (protein)
chain: MGKGDPKKPRGKMSSYAFFVQTCREEHKKKHPDASVNFSEFSKKCSERWKTMSAKEKGKFEDMAKADKARYEREMKTYIPPKGETKKKFKDPNAPKRPPSAFFLFCSEYRPKIKGEHPGLSIGDVAKKLGEMWNNTAADDKQPYEKKAAKLKEKYEKDIAAYRAKGKPDAAKKGVVKAEKSKKKKEEEDDEEDEEDEEEEEEEEDEDEEEDDDDE
As to B3, the “TNF release induced by HMGB1 isoform” value in experiment [12] is on record as “failed to induce TNF release”.
